For 20 molecules, EC50 results are on record in patent US8633200B2, “Inhibitors of human immunodeficiency virus replication” (priority 2010, dated 2014).

pEC50: −log10 of the molar value. Counter-ions that a name gives are not always drawn.

The first test relates to recombinant NL-Rluc virus (NL4-3 with Renilla Luciferase gene) in MT-2 cells. In words: Inhibition of HIV replication (NL-Rluc luciferase reporter virus, MT-2 cells). The class given is cell-based, human immunodeficiency virus (HIV). The following applies: NL43, 120 h, read-out: Activity. On the technique in general: Reporter assays use an easily measured gene product as a stand-in for the process of interest.
Consider `COc1cccc(-c2cccc(-c3cc4nc(C)c([C@H](OC(C)(C)C)C(=O)O)c(-c5cc(F)c6c(c5C)CCCO6)n4n3)c2)c1` [Example 129, (2S)-2-(tert-Butoxy)-2-(7-(8-fluoro-5-methylchroman-6-yl)-2-(3′-methoxy-[1,1′-biphenyl]-3-yl)-5-methylpyrazolo[1,5-a]pyrimidin-6-yl)acetic acid, TFA salt], for which the pEC50 was above 7.00.
On the same count and under the same terms, as for `Cc1cccc(-c2cccc(-c3cc4nc(C)c([C@H](OC(C)(C)C)C(=O)O)c(-c5cc(F)c6c(c5C)CCCO6)n4n3)c2)c1` [Example 130, (2S)-2-(tert-Butoxy)-2-(7-(8-fluoro-5-methylchroman-6-yl)-2-(3′-methyl-[1,1′-biphenyl]-3-yl)-5-methylpyrazolo[1,5-a]pyrimidin-6-yl)acetic acid, TFA salt], the figure is above 7.00.
With `Cc1nc2cc(-c3cccc(-c4cnn(C)c4)c3)nn2c(-c2cc(F)c3c(c2C)CCCO3)c1[C@H](OC(C)(C)C)C(=O)O` [Example 131, (2S)-2-(tert-Butoxy)-2-(7-(8-fluoro-5-methylchroman-6-yl)-5-methyl-2-(3-(1-methyl-1H-pyrazol-4-yl)phenyl)pyrazolo[1,5-a]pyrimidin-6-yl)acetic acid], the pEC50 was above 7.00.
On to `Cc1nc2c(-c3cccc(Cl)c3)cnn2c(-c2cc(F)c3c(c2C)CCCO3)c1C(OC(C)(C)C)C(=O)O` (stereo not drawn) [Example 132], for which the pEC50 is 6.00 to 7.00.
Take `Cc1nc2c(-c3cccc(Cl)c3)cnn2c(-c2ccc3c(c2)CCCO3)c1C(OC(C)(C)C)C(=O)O` (stereo not drawn) [Example 133, 2-tert-Butoxy-2-(3-(3-chlorophenyl)-(7-chroman-6-yl)-5-methylpyrazolo[1,5-a]pyrimidin-6-yl)acetic acid]: the pEC50 is 6.00 to 7.00.
Regarding `Cc1ccc(-c2c(C(OC(C)(C)C)C(=O)O)c(C)nc3c(-c4cccc(Cl)c4)cnn23)c(Cl)c1` (stereo not drawn) [Example 134, 2-tert-Butoxy-2-(7-(2-chloro-4-methylphenyl)-3-(3-chlorophenyl)-5-methylpyrazolo[1,5-a]pyrimidin-6-yl)acetic acid], the pEC50 is below 6.00.
As for `Cc1nc2c(-c3cccc(-c4ccncc4)c3)cnn2c(-c2cc(F)c3c(c2C)CCCO3)c1C(OC(C)(C)C)C(=O)O` (stereo not drawn) [Example 135, 2-(tert-Butoxy)-2-(7-(8-fluoro-5-methylchroman-6-yl)-5-methyl-3-(3-(pyridin-4-yl)phenyl)pyrazolo[1,5-a]pyrimidin-6-yl)acetic acid], the pEC50 was 6.00 to 7.00.
Same read-out and setting: as for `Cc1nc2c(-c3ccc(F)cc3)c(-c3ccccc3)nn2c(-c2cc(F)c3c(c2C)CCCO3)c1C(OC(C)(C)C)C(=O)O` (stereo not drawn) [Example 136, 2-(tert-Butoxy)-2-(7-(8-fluoro-5-methylchroman-6-yl)-3-(4-fluorophenyl)-5-methyl-2-phenylpyrazolo[1,5-a]pyrimidin-6-yl)acetic acid], the figure is below 6.00.
With `Cc1nc2c(-c3cc(F)c4c(c3C)CCCO4)c(-c3ccccc3)nn2c(-c2cc(F)c3c(c2C)CCCO3)c1C(OC(C)(C)C)C(=O)O` (stereo not drawn) [Example 137, 2-(3,7-Bis(8-fluoro-5-methylchroman-6-yl)-5-methyl-2-phenylpyrazolo[1,5-a]pyrimidin-6-yl)-2-(tert-butoxy)acetic acid], the pEC50 is below 6.00.
`Cc1nc2c(Br)c(-c3ccccc3)nn2c(-c2cc(F)c3c(c2C)CCCO3)c1[C@H](OC(C)(C)C)C(=O)O` [Example 138, (2S)-2-(3-Bromo-7-(8-fluoro-5-methylchroman-6-yl)-5-methyl-2-phenylpyrazolo[1,5-a]pyrimidin-6-yl)-2-(tert-butoxy)acetic acid]: the pEC50 is 6.00 to 7.00.
Same read-out and setting: as for `Cc1nc2c(-c3cccc(Cl)c3)c(-c3ccccc3)nn2c(-c2cc(F)c3c(c2C)CCCO3)c1[C@H](OC(C)(C)C)C(=O)O` [Example 140, (2S)-2-(tert-Butoxy)-2-(3-(3-chlorophenyl)-7-(8-fluoro-5-methylchroman-6-yl)-5-methyl-2-phenylpyrazolo[1,5-a]pyrimidin-6-yl)acetic acid], the figure is 6.00 to 7.00; as for `Cc1nc2c(-c3cccc(OCc4ccc(F)cc4)c3)c(-c3ccccc3)nn2c(-c2cc(F)c3c(c2C)CCCO3)c1[C@H](OC(C)(C)C)C(=O)O` [Example 141, (2S)-2-(tert-Butoxy)-2-(7-(8-fluoro-5-methylchroman-6-yl)-3-(3-((4-fluorobenzyl)oxy)phenyl)-5-methyl-2-phenylpyrazolo[1,5-a]pyrimidin-6-yl)acetic acid], below 6.00.
Consider `Cc1nc2c(-c3ccc4c(cnn4C)c3)c(-c3ccccc3)nn2c(-c2cc(F)c3c(c2C)CCCO3)c1[C@H](OC(C)(C)C)C(=O)O` [Example 142, (2S)-2-(tert-Butoxy)-2-(7-(8-fluoro-5-methylchroman-6-yl)-5-methyl-3-(1-methyl-1H-indazol-5-yl)-2-phenylpyrazolo[1,5-a]pyrimidin-6-yl)acetic acid], for which the pEC50 was 6.00 to 7.00.
In the case of `Cc1nc2c(Cl)c(C)nn2c(-c2cc(F)c3c(c2C)CCCO3)c1C(OC(C)(C)C)C(=O)O` (stereo not drawn) [Example 143, 2-(tert-Butoxy)-2-(3-chloro-7-(8-fluoro-5-methylchroman-6-yl)-2,5-dimethylpyrazolo[1,5-a]pyrimidin-6-yl)acetic acid], the pEC50 was 6.00 to 7.00.
`Cc1nc2c(Cl)c(C)nn2c(-c2ccc3c(c2)CCCO3)c1C(OC(C)(C)C)C(=O)O` (stereo not drawn) [Example 144, 2-(tert-Butoxy)2-(3-chloro-7-(chroman-6-yl)-2,5-dimethylpyrazolo[1,5-a]pyrimidin-6-yl)acetic acid]: the pEC50 is 6.00 to 7.00.
For `Cc1nc2cc(-c3cccc(Cl)c3)nn2c(C(C)C)c1[C@H](OC(C)(C)C)C(=O)O` [Example 145, (S)-2-(tert-Butoxy)-2-(2-(3-chlorophenyl)-7-isopropyl-5-methylpyrazolo[1,5-a]pyrimidin-6-yl)acetic acid], the pEC50 is below 6.00.
In the case of `Cc1nc2cc(-c3cccc(Cl)c3)nn2c(CC(C)C)c1[C@H](OC(C)(C)C)C(=O)O` [Example 146, (S)-2-(tert-Butoxy)-2-(2-(3-chlorophenyl)-7-isobutyl-5-methylpyrazolo[1,5-a]pyrimidin-6-yl)acetic acid], the pEC50 was below 6.00.
Take `Cc1nc2cc(-c3cccc(Cl)c3)nn2c(-c2ccc(F)cc2)c1[C@H](OC(C)(C)C)C(=O)O` [Example 147, (S)-2-(tert-Butoxy)-2-(2-(3-chlorophenyl)-7-(4-fluorophenyl)-5-methylpyrazolo[1,5-a]pyrimidin-6-yl)acetic acid]: the pEC50 was below 6.00.
In the case of `Cc1ccc(-c2c([C@H](OC(C)(C)C)C(=O)O)c(C)nc3cc(-c4cccc(Cl)c4)nn23)cc1` [Example 148, (S)-2-(tert-Butoxy)-2-(2-(3-chlorophenyl)-5-methyl-7-(p-tolyl)pyrazolo[1,5-a]pyrimidin-6-yl)acetic acid], the pEC50 was 6.00 to 7.00.
`Cc1nc2cc(-c3cccc(Cl)c3)nn2c(C2CCCCC2)c1[C@H](OC(C)(C)C)C(=O)O` [Example 149, (S)-2-(tert-Butoxy)-2-(2-(3-chlorophenyl)-7-cyclohexyl-5-methylpyrazolo[1,5-a]pyrimidin-6-yl)acetic acid]: the pEC50 is below 6.00.

The test is the same for the next values; noted with them: NL43, 120 h, read-out: EC50 μM.
With `Cc1nc2c(-c3ccc(F)cc3)c(-c3ccccc3)nn2c(-c2cc(F)c3c(c2C)CCCO3)c1C(OC(C)(C)C)C(=O)O` (stereo not drawn) [Example 136, 2-(tert-Butoxy)-2-(7-(8-fluoro-5-methylchroman-6-yl)-3-(4-fluorophenyl)-5-methyl-2-phenylpyrazolo[1,5-a]pyrimidin-6-yl)acetic acid], the EC50 came to 1.6 µM.
`Cc1nc2c(-c3cccc(Cl)c3)c(-c3ccccc3)nn2c(-c2cc(F)c3c(c2C)CCCO3)c1[C@H](OC(C)(C)C)C(=O)O` [Example 140, (2S)-2-(tert-Butoxy)-2-(3-(3-chlorophenyl)-7-(8-fluoro-5-methylchroman-6-yl)-5-methyl-2-phenylpyrazolo[1,5-a]pyrimidin-6-yl)acetic acid]: the EC50 came out at 1 µM.
With `Cc1nc2c(-c3cccc(OCc4ccc(F)cc4)c3)c(-c3ccccc3)nn2c(-c2cc(F)c3c(c2C)CCCO3)c1[C@H](OC(C)(C)C)C(=O)O` [Example 141, (2S)-2-(tert-Butoxy)-2-(7-(8-fluoro-5-methylchroman-6-yl)-3-(3-((4-fluorobenzyl)oxy)phenyl)-5-methyl-2-phenylpyrazolo[1,5-a]pyrimidin-6-yl)acetic acid], the EC50 was determined as 3.3 µM.
For the molecule `Cc1ccc(-c2c([C@H](OC(C)(C)C)C(=O)O)c(C)nc3cc(-c4cccc(Cl)c4)nn23)cc1` [Example 148, (S)-2-(tert-Butoxy)-2-(2-(3-chlorophenyl)-5-methyl-7-(p-tolyl)pyrazolo[1,5-a]pyrimidin-6-yl)acetic acid], the EC50 came to 0.88 µM.

By EC50 is commonly meant the concentration needed to bring the measured effect to its halfway point.
